Patent publication US9499486B2, “Kinase inhibitor” (RESPIVERT LIMITED, priority 2014, dated 2016)
Several values for one entry are separate records, joined by “and”; a condition that tells them apart may be missing. Equal entries are not always repeated. Structures can show the parent of a compound that is named as a salt. Where two headings read alike, the source gives them in different places. Values belong to the compound of their own block, whether it stands above or below them.

How the values were obtained:
[1] = Stability of pharmaceutical formulations (1 mg/mL solutions); assay type: physicochemical; details: for Original Purity: 1 mg/mL in pH 7.2 phosphate buffer, 4.5% mannitol, 3% polyoxyl 40 stearate, before storage; for Osmolality / pH: 1 mg/mL stock solution; for Purity at week n = 1 / Purity at week n = 2 / Purity at week n = 4: 1 mg/mL solution
Description: The samples were sonicated to achieve clear solutions having the following properties: Osmolality (mOsm/kg): 310 (Na), 314 (HCl); pH: 7.00 (Na), 7.05 (HCl). 0.5 mL of the stock solutions were diluted to 1 mL with 20% DMSO in water & injected for purity analysis by HPLC. The remaining stock solutions were then split into aliquots of 0.5 mL in HPLC vials, and stored at various conditions in duplicate. Samples were stored at 5 and 25° C., before being analysed by HPLC at 1, 2 and 4 weeks. Separate samples were stored at 40° C. and analysed at 4 weeks.

[2] = Solubility in fasted-state simulated colonic fluid (FaSSCoF); assay type: physicochemical; details: pH 6.5, 25° C., 24 h; for solubility thermodynamic at 24 h: fasted-state simulated colonic fluid (FaSSCoF), 25 °C, pH 6.5, fassgf or other biorelevant, thermodynamic from solid
Description: The solubility of the compound of the invention in FaSSCoF at pH 6.5 is determined using a modification of a previously-reported procedure (Vertzoni, M., et al. Pharm. Res. 2010, 27, 2187-2196). In place of the bile salt extract employed in the original procedure (which extract is no longer available), the modified procedure uses a mixture of sodium taurochlorate (0.15 g), glycocholic acid (0.15 g), ursodeoxycholic acid (0.05 g), cholic acid (0.05 g), and glycodeoxycholic acid (0.05 g). These five bile acids are ground together with a mortar and pestle to produce a fine white powder that is incorporated into the FaSSCoF, as outlined below.
FaSSCoF medium: Tris(hydroxymethyl)aminomethane (Tris; 0.275 g) and maleic acid (0.44 g) are dissolved in water (35 mL) to give a solution whose pH is adjusted to 6.5 by treatment with 0.5M NaOH (ca. 12 mL). The solution is then made up to 50 mL with water. A portion of this Tris/maleate buffer solution (ca. 25 mL) is added to a 0.5 L round-bottomed flask, before being treated with 0.00565 g of the bile acid mixture described above. Solutions of phosphatidylcholine (0.0111 g) in DCM (0.15 mL) and palmitic acid (0.0013 g) in DCM (0.15 mL) are added, then the organic solvent is evaporated off under reduced pressure at 40° C. until a clear solution, with no perceptible DCM odour, is achieved. The volume of the evaporated solution is adjusted to 50 mL by addition of the remainder of Tris/maleate buffer, then BSA (0.115 g) is added, before being dissolved by gentle agitation.
Solubility Determination: Test compounds are suspended in the pH 6.5 FaSSCoF medium to give a maximum final concentration of 2-10 mg/mL. The suspensions are equilibrated at 25° C. for 24 h, before being filtered through a glass fibre C filter. The filtrates are then diluted as appropriate for injection and quantification by HPLC with reference to a standard. Different volumes of the standard, diluted and undiluted sample solutions are injected and the solubilities are calculated using the peak areas determined by integration of the peak found at the same retention time as the principal peak in the standard injection.

[3] = Systemic pharmacokinetics and total colon tissue distribution after single oral administration; assay type: in vivo, mouse; details: male, C57BL/6, mouse, mice, oral 5 mg/kg, compound 1 measured
Description: Studies were conducted by Sai Life Sciences (Hinjewadi, Pune, India) to investigate the systemic pharmacokinetics and total colon tissue distribution of the compound of the invention. In particular, pharmacokinetic studies were carried out in male C57BL/6 mice following a single oral administration of the compound.

Jurkat cells = test: Cell cytotoxicity assay (assay r); assay type: cell-based, human; details: 24 hours
Description: 1×10^5 Jurkat cells (immortalised human T lymphocytes) are added to the appropriate number of wells of a 96 well plate in 100 μL of media (RPMI supplemented with 10% foetal bovine serum). 1 μL of DMSO control (final concentration 1.0% v/v) or test compound (final concentration 20, 5 or 1 μg/mL) is added to the wells and incubated at 37° C., 5% CO2. After 24 hours, the plate is centrifuged at 1200 rpm for 3 minutes and the supernatant discarded. Cells are then resuspended in 150 μL (final concentration 7.5 μg/mL) of propidium iodide (PI) in PBS and incubated at 37° C., 5% CO2 for 15 minutes. After 15 minutes, cells are analysed by flow cytometry (BD accuri) using the FL3 window. The % viability is calculated as the % of cells that are PI negative in the test wells normalised to the DMSO control.

non-mutant kinases = assay type: binding; details: for number of individual kinase hits, S(1): % Ctrl <1; for number of individual kinase hits, S(10): % Ctrl <10; for number of individual kinase hits, S(35): % Ctrl <35
Excerpt: These assays may be conducted by DiscoverX (formerly Ambit; San Diego, Calif.).

[4] = listed as Example 1, hydrochloride salt
[5] = stored at 5 ° C., listed as Example 1, hydrochloride salt
[6] = stored at 25 ° C., listed as Example 1, hydrochloride salt
[7] = read-out: pH 6.5 FaSSCoF Solubility Run 1
[8] = listed as Example 1, sodium salt
[9] = stored at 5 ° C., listed as Example 1, sodium salt
[10] = stored at 25 ° C., listed as Example 1, sodium salt
[11] = plasma, read-out: Mean plasma concentration
[12] = total colon, read-out: Mean total colon level

SMILES: COc1cc(Nc2cc(Oc3ccc(NC(=O)Nc4cc(C(C)(C)C)cc(NS(C)(=O)=O)c4OC)c4ccccc34)ccn2)ccc1C(=O)O [1 (hydrochloride salt), 4-((4-((4-(3-(5-(tert-Butyl)-2-methoxy-3-(methylsulfonamido)phenyl)ureido)naphthalen-1-yl)oxy)pyridin-2-yl)amino)-2-methoxybenzoic acid]
Original Purity [1, 4]: 98.1% | Osmolality [1, 4]: 314 mOsm/kg | pH [1, 4]: 7.05 | Purity at week n = 1 [1, 5]: 98.2% | Purity at week n = 2 [1, 5]: 98.1% and 98.0% | Purity at week n = 4 [1, 5]: 97.9% and 98.0% | Purity at week n = 1 [1, 6]: 98.0% | Purity at week n = 2 [1, 6]: 97.7% and 97.6% | Purity at week n = 4 [1, 6]: 97.2% and 97.4% | Purity at week n = 4 ([1]; stored at 40 ° C., listed as Example 1, hydrochloride salt): 79.2% and 80.4% | solubility thermodynamic at 24 h [2, 7]: 16 µg/mL | pH 6.5 FaSSCoF Solubility Run 2 [2]: 0.015 mg/mL

SMILES: COc1cc(Nc2cc(Oc3ccc(NC(=O)Nc4cc(C(C)(C)C)cc(NS(C)(=O)=O)c4OC)c4ccccc34)ccn2)ccc1C(=O)O [1 (sodium salt), 4-((4-((4-(3-(5-(tert-Butyl)-2-methoxy-3-(methylsulfonamido)phenyl)ureido)naphthalen-1-yl)oxy)pyridin-2-yl)amino)-2-methoxybenzoic acid]
Original Purity [1, 8]: 98.6% and 98.5% | Osmolality [1, 8]: 310 mOsm/kg | pH [1, 8]: 7.00 | Purity at week n = 1 [1, 9]: 98.2% and 98.4% | Purity at week n = 2 [1, 9]: 98.4% and 98.5% | Purity at week n = 4 [1, 9]: 98.3% and 98.4% | Purity at week n = 1 [1, 10]: 98.4% and 98.5% | Purity at week n = 2 [1, 10]: 98.1% | Purity at week n = 4 [1, 10]: 97.6% | Purity at week n = 4 ([1]; stored at 40 ° C., listed as Example 1, sodium salt): 76.0% and 73.7% | solubility thermodynamic at 24 h [2, 7]: 31 µg/mL | pH 6.5 FaSSCoF Solubility Run 2 [2]: 0.032 mg/mL | pH 6.5 FaSSCoF Solubility Run 3 [2]: 0.020 mg/mL | pH 6.5 FaSSCoF Solubility Run 4 [2]: 0.025 mg/mL | concentration at 0.5 h [3, 11]: 44.9 ng/mL | concentration at 1 h [3, 11]: 49.2 ng/mL | concentration at 2 h [3, 11]: 13 ng/mL | concentration at 4 h [3, 11]: 5.2 ng/mL | concentration at 6 h [3, 11]: 1.9 ng/mL | concentration at 8 h [3, 11]: 0.6 ng/mL | concentration at 12 h [3, 11]: 5.3 ng/mL | concentration at 24 h [3, 11]: 0 ng/mL | concentration at 0.5 h [3, 12]: 4.3 ng/g | concentration at 1 h [3, 12]: 9.3 ng/g | concentration at 2 h [3, 12]: 52.4 ng/g | concentration at 4 h [3, 12]: 10400 ng/g | concentration at 6 h [3, 12]: 4050 ng/g | concentration at 8 h [3, 12]: 12900 ng/g | concentration at 12 h [3, 12]: 535 ng/g | concentration at 24 h [3, 12]: 41.4 ng/g

solubility thermodynamic at 24 h [2, 7]: < 1 µg/mL | solubility thermodynamic at 24 h ([2]; read-out: pH 6.5 FaSSCoF Solubility Run 2): < 1 µg/mL
SMILES: C#Cc1cc(Nc2nccc(Oc3ccc(NC(=O)Nc4cc(C(C)(C)C)nn4-c4ccc(C)cc4)c4ccccc34)n2)cc(C(=O)NCCOCCOCCOC)c1 [Reference Compound A, 3-((4-((4-(3-(3-(tert-butyl)-1-(p-tolyl)-1H-pyrazol-5-yl)ureido)naphthalen-1-yl)oxy)pyrimidin-2-yl)amino)-5-ethynyl-N-(2-(2-(2-methoxyethoxy)ethoxy)ethyl)benzamide, reference compound]

SMILES: COCC(=O)Nc1cc(Oc2ccc(NC(=O)Nc3cc(C(C)(C)C)nn3-c3ccc(C)cc3)c3ccccc23)ccn1 [Reference Compound, reference compound]
% Viability at 1 μg/mL (Jurkat cells; 1 μg/mL): 23.5% | % Viability at 5 μg/mL (Jurkat cells; 5 μg/mL): 18.9% | % Viability at 20 μg/mL (Jurkat cells; 20 μg/mL): 17.3% | number of individual kinase hits, S(1) (non-mutant kinases; 50 nM): 7 | number of individual kinase hits, S(10) (non-mutant kinases; 50 nM): 32 | number of individual kinase hits, S(35) (non-mutant kinases; 50 nM): 67 | number of individual kinase hits, S(1) (non-mutant kinases; 500 nM): 45 | number of individual kinase hits, S(10) (non-mutant kinases; 500 nM): 105 | number of individual kinase hits, S(35) (non-mutant kinases; 500 nM): 143
